Experimental data as given in patent US20140154735A1, “TUMOUR CELL AND TISSUE CULTURE” (CAPSANT NEUROTECHNOLOGIES LTD., priority 2011, published 2014).
pIC50: −log10 of the molar value. Each block holds one compound with its values, some of them ahead of it.

Tests used:
LN18-eGFP clusters = test: 5-ALA staining of GBM(LN18-eGFP)/brain co-cultures; format: cell-based, human; conditions: 100 μg/ml, 24 hours
Source text: 5-aminolevulinic acid (5-ALA) can be used to visualize tumourous tissue during neurosurgical procedures. The intraoperative use of this guiding method may reduce the tumour residual volume and prolong progression-free survival in patients suffering from brain tumours. GBM(LN18-eGFP)/brain co-cultures as prepared in Example 4 were stained with 5-ALA to see whether, as in human tumours, 5-ALA could specifically stain the tumour cells.
Aminolevulinic acid hydrochloride (ALA) (Sigma product number A3785) was solubilised in water to 10 mg/ml. For incubation with the cultures, it was diluted in the medium in the well to give a final concentration of 100 μg/ml and incubated with the cultures for 24 hours. The cultures were then examined microscopically using the CARV confocal system described for immunohistological analysis.

LN-18 cells [1] = test: 2D monolayer culture of LN-18-GFP tumour cells alone, fluorescence growth readout; format: cell-based, human; conditions: for pIC50: Homo sapiens, LN-18, 2D culture, growth inhibition
Experimental: (§1) Human glioblastoma tumour cell lines, LN-18 (ATCC #CRL2610) were cultured and were transfected with either green fluorescent protein (GFP) expressing plasmids or red fluorescent protein (RFP) expressing plasmids. Cells were cultured and plated onto 6 well plates, at 1×10^5 cells per well, grown overnight and checked to see ˜75% confluence. The cells were transfected with pEGFP-N3 (BD Biosciences cat no #6080-1) using Gene Juice (Novagen cat no #70967-EA) as per manufacturer's protocols. 24 hours after transfection, the cells were selected with Geneticin (GIBCO cat no #10131-019), a population of selected cells were used in the experiments. A population of selected cells were cultured over prolonged periods of time with occasional selection to maintain a population of transfected cells. The expression of fluorescent proteins by the tumour cells allows monitoring of the tumour cells for proliferation and morphological changes. The transfected tumour cells (LN-18) were treated with trypsin/EDTA (sigma#T4299) to remove them from the flask, resuspended in culture media, The viable cells were counted using trypan blue exclusion The suspension was centrifuged at 1000 rpm/3 minutes and the resultant cell pellet resuspended to 50,000 cells/μl.
(§2) For the monolayer cultures of tumour cells alone (2D) LN-18_GFP cells were plated into 24 well plates at a concentration of 10^4 cells per well and after 2 hours treated with the same concentrations of TMZ as the organotypic co-cultures. Control organotypic co-cultures and 2D cultures were also monitored to compare normal growth of the tumour cells with that after addition of the TMZ. For analysis of fluorescence, images were taken on a Leica DM1L microscope using Leica application suite software. The images collected were analyzed using the BD IPLAB imaging software and the data analysed using Graphpad Prism5 software. The error bars are the standard error of the mean (SEM). 24 images were used for each data point.

LN-18 cells [2] = test: 3D organotypic co-culture of LN-18-GFP tumour cells in rat brain cell matrix, treated at seeding; format: cell-based, human
Experimental: as §1
The organotypic cultures were produced by preparing dissociated cells from isolated rat cortex. P0 Wistar rats were sacrificed and the brains removed. The cortices were dissected into a Petri dish and chopped into small pieces and put into cold EBSS (GIBCO cat no #24010). The tissue pieces were then triturated very gently. The resultant cell suspension was filtered through a 100 μm mesh filter fitting into a 50 ml falcon tube. The suspension was centrifuged at 1000 rpm/3 minutes. The viable cells were counted using Trypan blue exclusion and the cell pellet resuspended to 50,000 cells/μl.
The transfected tumour cells and the rat primary cells prepared as explained in Examples 1 and 2 were mixed together to form a suspension of cells at 50,000 cells/μl.
5 μL of this mixed cell suspension was added to the top of a 0.4 micron Millipore culture insert (Millipore cat no # PICM0350) placed in lml cortical media (10% Hams F12, 20% FCS, 5% horse serum, 10 mM Hepes, 2 mM glutamine in DMEM) in a 6 well plate (NUNC). The plate was then incubated at 37° C. with 5% CO2 (FIG. 1A). During the first hours of this incubation the cells compact to form a denser culture by the removal of the liquid from the 5 μl cell suspension through capillary action via the semi-permeable membrane support (FIG. 1A).
Using these optimisation experiments the cells were mixed in the proportions of 95% rat brain cells and 5% LN-18 tumour cells both resuspended at 50,000 cells per μl.
(§3) Organotypic co-cultures were prepared as previously described. 2 hours after preparation, TMZ was added into the culture medium at various concentrations—see FIG. 6. The cultures are incubated in the culture medium+TMZ for up to 14 days with the compound being renewed as the media was changed. This allowed for monitoring of the effect of the TMZ over time.
as §2

GL-15 [3] = test: 2D culture of GL-15 glioblastoma cells, growth inhibition; format: cell-based; conditions: GL-15, 2D culture
Experimental: as §2
(§4) Similarly to what has been observed with LN-18 cells, efficacy of Temozolomide was increased from 2.5 to 12 fold in brain-co-cultures. Thus, the co-cultures of the invention reflect the clinical situation more closely than 2D cultures for various glioblastoma cell lines.

GL-15 [4] = test: 3D co-culture of GL-15 glioblastoma cells with brain cell matrix, growth inhibition; format: cell-based; conditions: GL-15, 3D co-culture with brain cell matrix
Experimental: (§5) Each of these cell lines was eGFP-labeled and mixed with rat brain cells to form 3D organotypic co-cultures. As indicated by the eGFP signal, all brain-derived tumour cell lines grew and formed clusters of tumour cells within the co-cultures (FIGS. 3B, C and D) in a very similar way as LN18 cells.
as §3, §4

A172 [5] = test: 2D culture of A172 glioblastoma cells, growth inhibition; format: cell-based; conditions: Homo sapiens, A172, 2D culture
Experimental: as §2, §4

A172 [6] = test: 3D co-culture of A172 glioblastoma cells with brain cell matrix, growth inhibition; format: cell-based; conditions: Homo sapiens, A172, 3D co-culture with brain cell matrix
Experimental: as §5, §3, §4

U87 [7] = test: 2D culture of U87 glioblastoma cells, growth inhibition; format: cell-based; conditions: Homo sapiens, U-87 MG; U87, 2D culture; read-out: IC50 TMZ 2D
U87 [8] = test: 3D co-culture of U87 glioblastoma cells with brain cell matrix, growth inhibition; format: cell-based; conditions: Homo sapiens, U-87 MG, U87, 3D co-culture with brain cell matrix
Experimental: as §5, §3, §4

[9] = system: established glioblastoma tumour cell clusters in GBM/brain co-cultures; test: Tumour regression in established GBM/brain co-cultures, treatment started three days after seeding; format: cell-based
Source text: Chemotherapies are given to patients with established tumours and are poorly effective.
Thus, also in terms of tumour regression, the properties of the co-cultures of the invention are representative of the clinical situation.

Compound: NCC(=O)CCC(=O)O [5-ALA, 5-aminolevulinic acid]
- staining of tumour cell clusters (LN18-eGFP clusters; clusters of more than about 100 μm in diameter): strong specific 5-ALA staining
- staining of tumour cell clusters (LN18-eGFP clusters; clusters smaller than about 100 μm in diameter): stained more weakly

Compound: Nc1ccn([C@@H]2O[C@H](CO)[C@@H](O)[C@@H]2O)c(=O)n1 [Ara-C, Cytosine arabinoside]
- concentration showing growth inhibition (anti-proliferative activity) (LN-18 cells [1]; 2D cultures): 100 nM
- dose needed in 3D co-cultures relative to dose necessary in 2D cultures (LN-18 cells [2]; 3D versus 2D): ten times
- concentration required to reduce tumour cell proliferation (LN-18 cells [2]; GBM/Brain co-cultures (3D)): 1 µM
- effect on GBM cells (LN-18 cells [2]; GBM/Brain co-cultures (3D), 10 μM): effectively killed

- pIC50 (LN-18 cells [1]; read-out: IC50 TMZ 2D): < 5.00
- pIC50 (GL-15 [3]; read-out: IC50 TMZ 2D): < 4.30
- pIC50 (GL-15 [4]; read-out: IC50 TMZ 3D): ~4.70
- pIC50 (A172 [5]; A 172, read-out: IC50 TMZ 2D): ~4.60
- pIC50 (A172 [6]; A 172, read-out: IC50 TMZ 3D): ~5.30
- pIC50 (U87 [7]): ~4.92
- pIC50 (U87 [8]; read-out: IC50 TMZ 3D): ~6.00
Compound: Cn1nnc2c(C(N)=O)ncn2c1=O [TMZ, Temozolomide]
- pIC50 (LN-18 cells [2]; Homo sapiens, LN-18, LN-18, 3D co-culture with rat brain cells, growth inhibition, read-out: IC50 TMZ 3D): > 5.30
- pIC50 (LN-18 cells [2]; LN-18, 3D co-culture with rat brain cells, growth inhibition, read-out: IC50 TMZ 3D): ~5.40

- pIC50 (LN-18 cells [1]; read-out: IC50 Taxol 2D): ~8.15
- pIC50 (GL-15 [3]; read-out: IC50 Taxol 2D): ~8.40
- pIC50 (GL-15 [4]; read-out: IC50 Taxol 3D): 7.00
- pIC50 (A172 [5]; A 172, read-out: IC50 Taxol 2D): ~8.15
- pIC50 (A172 [6]; A 172, read-out: IC50 Taxol 3D): ~7.30
- pIC50 (U87 [8]; read-out: IC50 Taxol 3D): ~7.22
Compound: CC(=O)O[C@H]1C(=O)[C@@]2(C)[C@H]([C@H](OC(=O)c3ccccc3)[C@]3(O)C[C@H](OC(=O)[C@H](O)[C@@H](NC(=O)c4ccccc4)c4ccccc4)C(C)=C1C3(C)C)[C@]1(OC(C)=O)CO[C@@H]1C[C@@H]2O [Taxol, Paclitaxel]
- effect on tumour cell number (LN-18 cells [1]; 2D, Taxol 20 nM): reduction in cell number to almost zero
- effect on tumour cell number (average % fluorescence) (LN-18 cells [1]; 2D, taxol 5 nM): small but significant reduction in cell number
- effect on tumour cell number (average % fluorescence) (LN-18 cells [1]; 2D, taxol 20 and 50 nM): no increase in cell number
- effect on tumour cell growth (LN-18 cells [2]; 3D, taxol 25 nM, treatment started at seeding): cell growth was stopped
- effect on cell growth versus control cultures (average % fluorescence) (LN-18 cells [2]; 3D, taxol 25, 50 and 100 nM): significant reduction in cell growth
- concentration required to achieve tumour clusters shrinkage (LN-18 cells [2]; 3D, treatment started at seeding): 100 nM
- pIC50 (LN-18 cells [2]; Homo sapiens, LN-18, read-out: IC50 Taxol 3D, LN-18, 3D co-culture with rat brain cells, growth inhibition): ~7.60
- effect on fluorescence intensity of established tumour cell clusters ([9]; taxol 25 nM): no effect
- effect on fluorescence intensity of established tumour cell clusters ([9]; taxol 100 nM and 50 nM): marginal effects
